Measured values from patent US20060039974A1, “Sustained release preparation” (TAKEDA PHARMACEUTICAL COMPANY LIMITED, priority 2002, published 2006).

Assay: Dissolution test, Paddle Method, CTAB-containing The Japanese Pharmacopoeia 2nd fluid
Type: physicochemical
Conditions: after 10 min; control group; 0.1% CTAB-containing JP 2nd fluid 500 mL, 100 rpm
Procedure: To be specific, the tablets obtained in Examples 1-3 were subjected to a dissolution test (Paddle Method, 0.1% cetyltrimethylammoniumbromide (CTAB)-containing The Japanese Pharmacopoeia Degradation Test2nd fluid (hereinafter to be abbreviated as CTAB-containing The Japanese Pharmacopoeia Degradation Test 2nd fluid) 500 mL, number of rotation 100 rpm). In addition, as a control group, the powder of compound A was subjected to a similar dissolution test and found to show a dissolution rate of 99% after 10 min.
To be specific, a dissolution test of the tablet obtained in Example 13 was performed in the same manner as in Experimental Example 1. In addition, as a control group, the tablet of Reference Example 1 was subjected to a similar dissolution test and found to show a dissolution rate of 100% after 10 min.
To be specific, each tablet obtained in Examples 7 and 21 was subjected to a dissolution test (Paddle Method, The Japanese Pharmacopoeia Degradation Test 1st fluid (hereinafter to be abbreviated as The Japanese Pharmacopoeia 1st fluid) 500 mL, number of rotation 100 rpm). In addition, in the same manner as above except that the eluent was a CTAB-containing The Japanese Pharmacopoeia 2nd fluid, a dissolution test of the tablets obtained in Examples 7 and 21 was performed. The results are shown in Table 4 and Table 5, respectively.

SMILES: CC(C)Cn1c(CN)c(-c2ccccc2)c2cc(C(N)=O)ccc2c1=O [Compound A, 3-(aminomethyl)-2-isobutyl-1-oxo-4-phenyl-1,2-dihydroisoquinoline-6-carboxamide]
- dissolution rate: 99%
